Assay: xn = mol fraction of the nth substance listed
Conditions: Maximal bubble pressure

F.[F-].[Na+] [sodium hydrogen fluoride] + [F][Al]([F])[F]
Conditions	surface tension liquid-gas [mN/m]
1130.2 K, x1 = 0.6	92.04
1159.2 K, x1 = 0.6	89.61
1184.2 K, x1 = 0.6	87.51
1215.2 K, x1 = 0.6	84.94
1239.7 K, x1 = 0.6	82.84
1274.2 K, x1 = 0.6667	105.93
1297.2 K, x1 = 0.6667	104.59
1297.2 K, x1 = 0.7143	121.35
1299.2 K, x1 = 0.75	132.71
1318.2 K, x1 = 0.7143	118.25
1318.2 K, x1 = 0.75	130.09
1319.2 K, x1 = 0.6667	103.14
1329.2 K, x1 = 0.7143	116.62
1339.2 K, x1 = 0.75	127.18
1340.2 K, x1 = 0.6667	101.57
1348.2 K, x1 = 0.7143	113.82
1368.2 K, x1 = 0.7143	110.87
1370.2 K, x1 = 0.75	122.89

— the NIST ThermoML archive (doi:10.1021/je901079k)
